Assay results taken from patent US20220387303A1, “Vaginal Drug Delivery Device” (THE REGENTS OF THE UNIVERSITY OF CALIFORNIA, priority 2019, published 2022).
In brackets after ≈: the same amount, converted by molar mass.

What was measured:
[1] = In vitro cumulative drug release from devices in PBS (pH 7.4) at 37° C. under gentle shaking; assay type: physicochemical
[2] = tested on: Candida albicans (ATCC 18804); assay: Liquid assay, inhibition of yeast growth in Sabouraud dextrose broth; assay type: cell-based; conditions: for Optical Density (OD600): 12 h; for Cell Density: converted from OD600
Experimental: Liquid assay was also used to further characterize the […] properties. Candida albicans (ATCC 18804) was cultured in Sabouraud dextrose broth with a starting concentration of 0.08 OD600 value. After 12 h, optical density was measured using spectrometer at 600 nm wavelength. Then, conversion to cell density is using the approximation 0.5 equals 1.5×10^8 CFU/ml.

sustained release duration ([1]; clotrimazole from PLGA device)	IC50 ([2]; Candida albicans, ATCC18804, after 12 h, starting 0.08 OD600, read-out: IC50 (half maximal inhibitory concentration)) [µg/mL]	prolonged and sustained release of hormone drugs, duration ([1]; released from device)	SMILES	Optical Density (OD600) ([2]; Clotrimazole Conc. 0.37 μg/ml)	Cell Density ([2]; Clotrimazole Conc. 0.37 μg/ml) [mL⁻¹]	Optical Density (OD600) ([2]; Clotrimazole Conc. 1.1 μg/ml)	Cell Density ([2]; Clotrimazole Conc. 1.1 μg/ml) [mL⁻¹]	Optical Density (OD600) ([2]; Clotrimazole Conc. 3.3 μg/ml)	Cell Density ([2]; Clotrimazole Conc. 3.3 μg/ml) [mL⁻¹]	Optical Density (OD600) ([2]; Clotrimazole Conc. 10 μg/ml)	Cell Density ([2]; Clotrimazole Conc. 10 μg/ml) [mL⁻¹]
up to 10 days	3.3 (≈ 9.57 µM)	–	Clc1ccccc1C(c1ccccc1)(c1ccccc1)n1ccnc1 [Clotrimazole]	0.9	2.7e+08	0.8	2.4e+08	0.7	2.1e+08	0.5	1.5e+08
–	–	more than two months	CC(=O)[C@H]1CC[C@H]2[C@@H]3CCC4=CC(=O)CC[C@]4(C)[C@H]3CC[C@]12C [progesterone]	–	–	–	–	–	–	–	–
